Values joined by “and” are separate entries in the source; they are usually repeats but may differ in a detail not shown here. Identical values can stand only once. Some results are limits rather than exact numbers.

Results on 7 compounds are retold here after PubChem BioAssay AID1963841 (Molecular Pharmacology Branch, DTP, NCI, 2024).

The test system of the assay is 439559-082-T-J2-PDC spheroid viability. The assay is described as follows: Anticancer human tumor 439559-082-T-J2-PDC patient-derived colon adenocarcinoma cell line growth inhibition [POLQ]. Conditions: spheroids with HUVEC and MSC; for viability, T/C: stronger effect = lower value. On the procedure:
Multicellular complex tumor spheroid response to Polymerase (POL) inhibitors (novobiocin, ART-558, RP6685) in combination with a variety of drugs and investigational agents in selected tumor cell lines
The POL inhibitors (novobiocin, ART-558, and RP6685) were evaluated both individually and in combination with standard of care and investigational anticancer small molecules within a complex spheroid model of solid tumors. . Complex spheroids include a stromal component modeled by human endothelial cells (HUVEC) and fibroblasts modeled by human mesenchymal stem cells (MSCs). The concentration ranges selected for each drug and investigational agent were based upon clinically achievable concentrations if the clinical Cmax of the agent was known.
Compounds. The drugs and investigational agents: novobiocin (NSC847541), ART-558 (NSC835418), RP-6685 (NSC848927), peposertib (NSC802822), ceralasertib (NSC780249), elimusertib (NSC800525), camonsertib (NSC841442), AZD-1390 (NSC803789), olaparib (NSC753686), talazoparib (NSC767125), rucaparib (NSC756644), sotorasib (NSC818433), MRTX-1133 (NSC836407), SN-38 (NSC673596), topotecan (NSC609699), epotoside (NSC141540), doxorubicin (NSC123127), gemcitabine (NSC613327), 5-fluorouracil (NSC19893), paclitaxel (NSC125973), vemurafenib (NSC761431), MSA-2 (NSC828583), SN-011 (NSC837082), adavosertib (NSC754352), prexasertib (NSC758257), carboplatin (NSC241240) and oxaliplatin (NSC266046), were obtained from the National Cancer Institute (NCI) Developmental Therapeutics Program Chemical Repository (21). The FDA-approved anticancer drug set is available from the Developmental Therapeutics Program at https://dtp.cancer.gov/organization/dscb/obtaining/. […] The stock solutions were prepared in dimethyl sulfoxide (DMSO, Sigma-Aldrich, St. Louis, MO, cat. D2650), except for the platinum compounds which were prepared in saline (Quality Biological, Gaithersburg, MD, cat. 114-055-101), at 800-fold the tested concentration and stored at -70 degrees C prior to their use. All drugs and investigational agents were tested over a range starting from a high concentration at or near the clinical Cmax and decreasing in half-log increments. If the clinical Cmax for an agent had not been determined, the highest concentration tested was 10 microM, except for SN-38, which was tested at a high concentration of 1 microM.
Cell Culture. All cells were maintained in an incubator at 37 degrees C and 5% CO2 with 95% humidity. The PDC lines were cultured according to standard operating procedures established by the NCI PDMR (https://pdmr.cancer.gov). Table 3 of the manuscript, lists the cell lines along with the number of the three cell types plated to form the mct-spheroids and media for tumor cell growth. After thawing, all PDC lines, except 997537-175-T-J1-PDC and 415267-285-R-J2-PDC, were cultured in Matrigel-coated flasks prepared with a working solution of 1X Ham's F-12 nutrient mix, without supplementation (Thermo Fisher Scientific, cat. 11765054), 100 U/mL penicillin-streptomycin (Thermo Fisher Scientific, cat. 15140122), and 2.5% Matrigel (Corning Inc., Corning, NY, cat. 354248) for the first three passages. The two PDC lines 997537-175-T-J1-PDC and 415267-285-R-J2-PDC were cultured on uncoated flasks. The 857933-349-R-J2-PDC line was cultured in 6C/Colon 1B media containing advanced DMEM/F-12 (Thermo Fisher Scientific, cat. 12634028), 10 mM HEPES (Thermo Fisher Scientific, cat. 15630080), 1X GlutaMAX supplement (Thermo Fisher Scientific, cat. 35050061), 0.1 mg/mL primocin (InvivoGen, San Diego, CA, cat. ant-pm-2), 10% defined fetal bovine serum, heat inactivated (HyClone Laboratories Inc., Logan, UT, cat. SH30070.03HI), 50% L-WRN conditioned media (ATCC, cat. CRL-3276), 1.25 mM N-Acetyl-L-cysteine (Sigma-Aldrich, cat. A9165), 10 mM nicotinamide (Sigma-Aldrich, cat. N0636), 1X B-27 supplement (Thermo Fisher Scientific, cat. 17504044), 1X N-2 supplement (Thermo Fisher Scientific, cat. […]
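Note: spheroids exposed to compounds for seven days before readout.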

Usually viability, T/C stands for the result in the treated group divided by that in the control group, in per cent. One may read the IC50 as the concentration needed to halve the response being measured. Regarding `C#Cc1c(F)ccc2cc(O)cc(-c3ncc4c(N5CC6CCC(C5)N6)nc(OCC56CCCN5CC(F)C6)nc4c3F)c12` (configuration not stated), the viability, T/C (compound 0.0316 µM) is 98.3% and 86.1% and 91.5%; the viability, T/C (compound 0.1 µM) was 87.7% and 85.2% and 81.3%; the viability, T/C (compound 0.316 µM) was 72.3% and 64.9% and 72.9%; the viability, T/C (compound 1 µM) is 66.5% and 68.4% and 70.6%; the viability, T/C (compound 3.16 µM) was 59.8% and 69.2% and 61.3%; the viability, T/C (compound 10 µM) is 53% and 67.8% and 51%. The IC50 (curve of compound) was greater than 10 µM.

For the compound `CC(=O)O[C@H]1C(=O)[C@@]2(C)[C@H]([C@H](OC(=O)c3ccccc3)[C@]3(O)C[C@H](OC(=O)[C@H](O)[C@@H](NC(=O)c4ccccc4)c4ccccc4)C(C)=C1C3(C)C)[C@]1(OC(C)=O)CO[C@@H]1C[C@@H]2O`, the viability, T/C (compound 0.0949 µM) was 83% and 81.7% and 82.3%; the viability, T/C (compound 0.3 µM) is 77.9% and 70.6% and 74.8%; the viability, T/C (compound 0.949 µM) is 68.7% and 51.8% and 55.5%; the viability, T/C (compound 3 µM) is 43.4% and 22.5% and 40.4%. Moreover, the IC50 (curve of compound) is 2.24 µM and 1.18 µM and 1.44 µM.

For the compound `CC(C)n1c(=O)n(C)c2cnc3cc(F)c(-c4ccc(OCCCN5CCCCC5)nc4)cc3c21`, for the setting “compound 3.16 µM”, the viability, T/C was 116% and 127% and 102%. Further, the IC50 (curve of compound) was greater than 10 µM.

In the case of `CC1COCCN1c1cc(C2(O)CC3CCC(C2)O3)c2cnn(-c3ccn[nH]3)c2n1` (configuration not stated), the viability, T/C (compound 0.0316 µM) is 92.2% and 97.5% and 97.8%; the viability, T/C (compound 0.1 µM) is 82.7% and 81.3% and 85.3%; the viability, T/C (compound 0.316 µM) is 70.9% and 70.1% and 75.3%; the viability, T/C (compound 1 µM) was 61.7% and 59.7% and 72.1%; the viability, T/C (compound 3.16 µM) was 47.5% and 49% and 59.7%; the viability, T/C (compound 10 µM) is 46.5% and 47% and 53.5%. The IC50 (curve of compound) was 3.48 µM and 4.1 µM and > 10 µM.

Regarding `CCc1cc2c(N3CCc4c(cc(Cn5ccnc5)cc4-c4cn(C)nc4C(F)(F)F)C3=O)cc(C)nc2c(OC)n1`, the viability, T/C (compound 0.0316 µM) was 105% and 93.7% and 95.3%; the viability, T/C (compound 0.1 µM) is 94.8% and 96.5% and 90.4%; the viability, T/C (compound 0.316 µM) was 94.4% and 95.2% and 87.4%; the viability, T/C (compound 1 µM) is 103% and 91.7% and 94.3%; the viability, T/C (compound 3.16 µM) is 99.1% and 101% and 92.2%; the viability, T/C (compound 10 µM) is 94.1% and 90.4% and 87.9%. Further, the IC50 (curve of compound) is greater than 10 µM.

Consider `O=C(Nc1ccc(O)c(NS(=O)(=O)c2ccc(F)cc2)c1)c1ccc(-c2ccccc2)cc1`, for which the viability, T/C reads like this: (compound 0.0316 µM) 91% and 95.6% and 94.9%; (compound 0.1 µM) 95.3% and 90.8% and 94.3%; (compound 0.316 µM) 87.2% and 100% and 98.6%; (compound 1 µM) 97.2% and 96.6% and 96.2%; (compound 3.16 µM) 112% and 107% and 106%; (compound 10 µM) 105% and 102% and 101%. For the same compound, where the note is “curve of compound”, the IC50 was greater than 10 µM.

In the case of `O=C(c1cc(Cc2n[nH]c(=O)c3ccccc23)ccc1F)N1CCN(C(=O)C2CC2)CC1` + COC1C(OC(N)=O)C(O)C(Oc2ccc3c(O)c(NC(=O)c4ccc(O)c(CC=C(C)C)c4)c(=O)oc3c2C)OC1(C)C, the IC50 runs as follows: (curve of first compound, second compound 0.0316 µM) greater than 10 µM; (curve of first compound, second compound 0.1 µM) greater than 10 µM; (curve of first compound, second compound 0.316 µM) greater than 10 µM; (curve of first compound, second compound 1 µM) greater than 10 µM; (curve of first compound, second compound 3.16 µM) greater than 10 µM; (curve of first compound, second compound 10 µM) greater than 10 µM. In addition, the viability, T/C is, setting by setting: (second compound 0.0316 µM, first compound 0.0316 µM) 101%; (second compound 0.0316 µM, first compound 0.1 µM) 106%; (second compound 0.0316 µM, first compound 0.316 µM) 94.4%; (second compound 0.0316 µM, first compound 1 µM) 100%; (second compound 0.0316 µM, first compound 3.16 µM) 106%; (second compound 0.0316 µM, first compound 10 µM) 97.4%. The viability, T/C reads like this: (second compound 0.1 µM, first compound 0.0316 µM) 105%; (second compound 0.1 µM, first compound 0.1 µM) 102%; (second compound 0.1 µM, first compound 0.316 µM) 100%; (second compound 0.1 µM, first compound 1 µM) 96.4%; (second compound 0.1 µM, first compound 3.16 µM) 105%; (second compound 0.1 µM, first compound 10 µM) 98.1%. Also, the viability, T/C runs as follows: (second compound 0.316 µM, first compound 0.0316 µM) 102%; (second compound 0.316 µM, first compound 0.1 µM) 104%; (second compound 0.316 µM, first compound 0.316 µM) 98.9%; (second compound 0.316 µM, first compound 1 µM) 92.9%; (second compound 0.316 µM, first compound 3.16 µM) 107%; (second compound 0.316 µM, first compound 10 µM) 97.8%. For the same compound, the viability, T/C is 108% (second compound 1 µM, first compound 0.0316 µM); 102% (second compound 1 µM, first compound 0.1 µM); 100% (second compound 1 µM, first compound 0.316 µM); 106% (second compound 1 µM, first compound 1 µM); 107% (second compound 1 µM, first compound 3.16 µM); 100% (second compound 1 µM, first compound 10 µM). Besides, the viability, T/C by setting is: (second compound 3.16 µM, first compound 0.0316 µM) 107%; (second compound 3.16 µM, first compound 0.1 µM) 109%; (second compound 3.16 µM, first compound 0.316 µM) 94.9%; (second compound 3.16 µM, first compound 1 µM) 97%; (second compound 3.16 µM, first compound 3.16 µM) 105%; (second compound 3.16 µM, first compound 10 µM) 92.1%. Also, the viability, T/C (second compound 10 µM, first compound 0.0316 µM) was 97.7%; the viability, T/C (second compound 10 µM, first compound 0.1 µM) is 99.3%; the viability, T/C (second compound 10 µM, first compound 0.316 µM) was 102%; the viability, T/C (second compound 10 µM, first compound 1 µM) came to 102%; the viability, T/C (second compound 10 µM, first compound 3.16 µM) came to 116%; the viability, T/C (second compound 10 µM, first compound 10 µM) was 91.4%.
